Assay results taken from PubChem BioAssay (NCI).
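Test compounds were applied to cells in 96-well plates for 48 hours at 5 doses. TGI denotes the concentration required for complete inhibition of growth.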

What was measured:
Experiment in all cases: inhibition of tumour cell growth, NCI panel, 48 h
[1] = test system: LOX IMVI melanoma
[2] = test system: SN12C renal
[3] = test system: HOP-62 NSCLC
[4] = test system: DU-145 prostate
[5] = test system: M14 melanoma
[6] = test system: NCI-H226 lung
[7] = test system: A498 renal
[8] = test system: MOLT-4 leukemia
[9] = test system: OVCAR-4 ovarian
[10] = test system: ACHN renal
[11] = test system: RXF 393 renal
[12] = test system: T-47D breast
[13] = test system: HCC-2998 colon
[14] = test system: HCT-116 colon
[15] = test system: SK-OV-3 ovarian
[16] = test system: SR leukemia
[17] = test system: NCI-H522 lung
[18] = test system: MDA-MB-231 breast
[19] = test system: HOP-92 NSCLC
[20] = test system: SNB-19 CNS
[21] = test system: SK-MEL-28 melanoma
[22] = test system: SF-539 CNS
[23] = test system: SK-MEL-2 melanoma
[24] = test system: 786-0 renal
[25] = test system: MDA-N
[26] = test system: UACC-62 melanoma
[27] = test system: A549 NSCLC
[28] = test system: BT-549 breast
[29] = test system: SK-MEL-5 melanoma
[30] = test system: PC-3 prostate
[31] = test system: CAKI-1 renal
[32] = test system: OVCAR-8 ovarian
[33] = test system: SF-295 CNS
[34] = test system: IGROV1 ovarian
[35] = test system: HL-60(TB) leukemia
[36] = test system: UO-31 renal
[37] = test system: RPMI-8226 leukemia
[38] = test system: MALME-3M melanoma
[39] = test system: HT29 colon
[40] = test system: U251 CNS
[41] = test system: K-562 leukemia
[42] = test system: OVCAR-3 ovarian
[43] = test system: MCF7 breast
[44] = test system: MDA-MB-435
[45] = test system: OVCAR-5 ovarian
[46] = test system: KM12 colon
[47] = test system: NCI-H23 lung
[48] = test system: SW-620 colon
[49] = test system: CCRF-CEM leukemia
[50] = test system: SF-268 CNS
[51] = test system: HCT-15 colon
[52] = test system: HS 578T breast
[53] = test system: NCI/ADR-RES ovarian
[54] = test system: NCI-H460 lung
[55] = test system: TK-10 renal
[56] = test system: UACC-257 melanoma
[57] = test system: SNB-75 CNS
[58] = test system: EKVX NSCLC
[59] = test system: COLO 205 colon
[60] = test system: DMS 114 small cell lung
[61] = test system: XF 498 CNS
[62] = test system: DMS 273 small cell lung
[63] = test system: LXFL 529 NSCLC
[64] = test system: KM20L2 colon
[65] = test system: M19-MEL melanoma

Measured: TGI

O=C(O)[C@@H]1C[C@@H](O)CN1C(=O)OCc1ccccc1
> 100 µM: [1] | [2] | [3] | [4] | [5] | [6] | [7] | [8] | [9] | [10] | [11] | [12] | [13] | [14] | [15] | [16] | [17] | [18] | [19] | [20] | [21] | [22] | [23] | [24] | [25] | [26] | [27] | [28] | [29] | [30] | [31] | [32] | [33] | [34] | [35] | [36] | [37] | [38] | [39] | [40] | [41] | [42] | [43] | [44] | [45] | [46] | [47] | [48] | [49] | [50] | [51] | [52] | [53] | [54] | [55] | [56] | [57] | [58] | [59]

COC(=O)c1csnn1
> 100 µM: [1] | [2] | [3] | [5] | [6] | [8] | [10] | [13] | [14] | [15] | [16] | [60] | [61] | [17] | [20] | [62] | [21] | [22] | [24] | [63] | [26] | [27] | [64] | [29] | [32] | [33] | [34] | [35] | [36] | [37] | [38] | [39] | [40] | [65] | [41] | [42] | [46] | [47] | [48] | [49] | [50] | [51] | [54] | [55] | [56] | [58] | [59]
